The source of these data is the OligoGym collection.

Where “and” joins values, the source holds several entries; their conditions need not be identical. Identical values can stand only once. HELM strings list units from the 5' end as sugar, base in round brackets, then linkage (d deoxyribose, r ribose, m 2'-O-methyl, p phosphodiester). Methylation of C is not given here. [moe] = 2'-O-(2-methoxyethyl) (MOE); [cEt] = constrained ethyl (cEt); [sp] = phosphorothioate linkage

This series addresses HBV. The note with it: ASO.

“RNA1{[moe](C)[sp].[moe](T)[sp].[moe](A)[sp].[moe](G)[sp].d(T)[sp].d(A)[sp].d(A)[sp].d(A)[sp].d(C)[sp].d(T)[sp].d(G)[sp].d(A)[sp].d(G)[sp].[moe](C)[sp].[moe](C)[sp].[moe](A)}$$$$V2.0”: the target mRNA inhibition (HepG2, 0.07 µM) was 66% and 65%. Turning to “RNA1{[moe](C)[sp].[moe](T)[sp].[moe](G)[sp].d(A)[sp].d(A)[sp].d(C)[sp].d(A)[sp].d(A)[sp].d(A)[sp].d(T)[sp].d(G)[sp].d(G)[sp].d(C)[sp].[cEt](A)[sp].[cEt](C)[sp].[cEt](T)}$$$$V2.0”, the target mRNA inhibition (HepG2, 0.07 µM) is 64% and 74%. The same measure, in the same setting: for “RNA1{[moe](G)[sp].[cEt](A)[sp].[cEt](G)[sp].d(A)[sp].d(G)[sp].d(A)[sp].d(A)[sp].d(G)[sp].d(T)[sp].d(C)[sp].d(C)[sp].d(A)[sp].d(C)[sp].[cEt](C)[sp].[cEt](A)[sp].[moe](C)}$$$$V2.0” the value was 65% and 63%.

On to “RNA1{[moe](G)[sp].[cEt](A)[sp].[cEt](G)[sp].d(G)[sp].d(C)[sp].d(C)[sp].d(C)[sp].d(A)[sp].d(C)[sp].d(T)[sp].d(C)[sp].d(C)[sp].d(C)[sp].[cEt](A)[sp].[cEt](T)[sp].[moe](A)}$$$$V2.0”, for which the target mRNA inhibition is, setting by setting: (HepG2, 0.0092593 µM) 29%; (HepG2, 0.0277778 µM) 63%; (HepG2, 0.0833333 µM) 87%; (HepG2, 0.25 µM) 85%.

Substance “RNA1{[moe](G)[sp].[cEt](A)[sp].[cEt](G)[sp].d(G)[sp].d(T)[sp].d(G)[sp].d(A)[sp].d(A)[sp].d(G)[sp].d(C)[sp].d(G)[sp].d(A)[sp].d(A)[sp].[cEt](G)[sp].[cEt](T)[sp].[moe](G)}$$$$V2.0” registered a target mRNA inhibition (HepG2, 0.07 µM) of 71%. As to “RNA1{[moe](G)[sp].[cEt](A)[sp].d(A)[sp].d(C)[sp].d(C)[sp].d(A)[sp].d(C)[sp].d(T)[sp].d(G)[sp].d(A)[sp].d(A)[sp].d(C)[sp].[cEt](A)[sp].[moe](A)[sp].[cEt](A)[sp].[moe](T)}$$$$V2.0”, the target mRNA inhibition (HepG2, 0.07 µM) is 49% and 43%. As to “RNA1{[moe](G)[sp].[cEt](A)[sp].d(G)[sp].d(A)[sp].d(G)[sp].d(A)[sp].d(A)[sp].d(G)[sp].d(T)[sp].d(C)[sp].d(C)[sp].d(A)[sp].[cEt](C)[sp].[moe](C)[sp].[cEt](A)[sp].[moe](C)}$$$$V2.0”, under “HepG2, 0.07 µM”, the target mRNA inhibition was 42% and 56%. “RNA1{[moe](G)[sp].[cEt](A)[sp].d(T)[sp].d(G)[sp].d(A)[sp].d(G)[sp].d(G)[sp].d(C)[sp].d(A)[sp].d(T)[sp].d(A)[sp].d(G)[sp].[cEt](C)[sp].[moe](A)[sp].[cEt](G)[sp].[moe](C)}$$$$V2.0”: the target mRNA inhibition (HepG2, 0.07 µM) was 70% and 66%. On to “RNA1{[moe](G)[sp].[cEt](C)[sp].[cEt](A)[sp].d(G)[sp].d(A)[sp].d(G)[sp].d(G)[sp].d(T)[sp].d(G)[sp].d(A)[sp].d(A)[sp].d(G)[sp].d(C)[sp].[cEt](G)[sp].[cEt](A)[sp].[moe](A)}$$$$V2.0”, for which the target mRNA inhibition (HepG2, 0.07 µM) was determined as 70%. In the case of “RNA1{[moe](G)[sp].[cEt](C)[sp].d(A)[sp].d(T)[sp].d(A)[sp].d(G)[sp].d(C)[sp].d(A)[sp].d(G)[sp].d(C)[sp].d(A)[sp].d(G)[sp].[cEt](G)[sp].[moe](A)[sp].[cEt](T)[sp].[moe](G)}$$$$V2.0”, the target mRNA inhibition (HepG2, 0.07 µM) was 76% and 78%.

As to “RNA1{[moe](G)[sp].[cEt](G)[sp].[cEt](C)[sp].d(A)[sp].d(C)[sp].d(A)[sp].d(G)[sp].d(C)[sp].d(T)[sp].d(T)[sp].d(G)[sp].d(G)[sp].d(A)[sp].[cEt](G)[sp].[cEt](G)[sp].[moe](C)}$$$$V2.0”, the target mRNA inhibition (HepG2, 0.07 µM) is 36% and 39%. On to “RNA1{[moe](G)[sp].[cEt](T)[sp].[cEt](G)[sp].d(A)[sp].d(A)[sp].d(G)[sp].d(C)[sp].d(G)[sp].d(A)[sp].d(A)[sp].d(G)[sp].d(T)[sp].d(G)[sp].[cEt](C)[sp].[cEt](A)[sp].[moe](C)}$$$$V2.0”, for which the target mRNA inhibition (HepG2, 0.07 µM) was 68% and 75%.

Turning to “RNA1{[moe](G)[sp].[cEt](T)[sp].d(C)[sp].d(C)[sp].d(A)[sp].d(C)[sp].d(C)[sp].d(A)[sp].d(C)[sp].d(G)[sp].d(A)[sp].d(G)[sp].[cEt](T)[sp].[moe](C)[sp].[cEt](T)[sp].[moe](A)}$$$$V2.0”, the target mRNA inhibition (HepG2, 0.07 µM) is 51% and 38%. As for “RNA1{[moe](G)[sp].[cEt](T)[sp].d(G)[sp].d(A)[sp].d(A)[sp].d(G)[sp].d(C)[sp].d(G)[sp].d(A)[sp].d(A)[sp].d(G)[sp].d(T)[sp].[cEt](G)[sp].[moe](C)[sp].[cEt](A)[sp].[moe](C)}$$$$V2.0”, the target mRNA inhibition was 18% (HepG2, 0.0092593 µM); 36% (HepG2, 0.0277778 µM); 81% and 80% (HepG2, 0.07 µM); 75% (HepG2, 0.0833333 µM); 88% (HepG2, 0.25 µM). With “RNA1{[moe](G)[sp].[cEt](T)[sp].d(G)[sp].d(C)[sp].d(A)[sp].d(G)[sp].d(A)[sp].d(G)[sp].d(G)[sp].d(T)[sp].d(G)[sp].d(A)[sp].[cEt](A)[sp].[moe](G)[sp].[cEt](C)[sp].[moe](G)}$$$$V2.0”, the target mRNA inhibition (HepG2, 0.0092593 µM) came to 14%; the target mRNA inhibition (HepG2, 0.0277778 µM) amounted to 33%; the target mRNA inhibition (HepG2, 0.07 µM) is 74% and 83%; the target mRNA inhibition (HepG2, 0.0833333 µM) was 70%; the target mRNA inhibition (HepG2, 0.25 µM) is 77%. Turning to “RNA1{[moe](G)[sp].[moe](A)[sp].[moe](A)[sp].[moe](C)[sp].[moe](C)[sp].[moe](A)[sp].d(C)[sp].d(T)[sp].d(G)[sp].d(A)[sp].d(A)[sp].d(C)[sp].d(A)[sp].d(A)[sp].d(A)[sp].[moe](T)[sp].[moe](G)}$$$$V2.0”, where the note is “HepG2, 0.07 µM”, the target mRNA inhibition is 53% and 43%.

For the substance “RNA1{[moe](G)[sp].[moe](A)[sp].[moe](A)[sp].[moe](C)[sp].[moe](T)[sp].[moe](G)[sp].d(G)[sp].d(A)[sp].d(G)[sp].d(C)[sp].d(C)[sp].d(A)[sp].d(C)[sp].d(C)[sp].d(A)[sp].[moe](G)[sp].[moe](C)}$$$$V2.0”, under “HepG2, 0.07 µM”, the target mRNA inhibition is 55% and 48%. On to “RNA1{[moe](G)[sp].[moe](A)[sp].[moe](A)[sp].[moe](C)[sp].d(C)[sp].d(A)[sp].d(C)[sp].d(T)[sp].d(G)[sp].d(A)[sp].d(A)[sp].d(C)[sp].d(A)[sp].[moe](A)[sp].[moe](A)[sp].[moe](T)[sp].[moe](G)}$$$$V2.0”, for which the target mRNA inhibition (HepG2, 0.07 µM) was 33% and 45%.

Take “RNA1{[moe](G)[sp].[moe](A)[sp].[moe](A)[sp].[moe](C)[sp].d(T)[sp].d(G)[sp].d(G)[sp].d(A)[sp].d(G)[sp].d(C)[sp].d(C)[sp].d(A)[sp].d(C)[sp].[moe](C)[sp].[moe](A)[sp].[moe](G)}$$$$V2.0”: under “HepG2, 0.07 µM”, the target mRNA inhibition is 46% and 53%. On the same count and under the same terms, for “RNA1{[moe](G)[sp].[moe](A)[sp].[moe](A)[sp].[moe](G)[sp].[moe](C)[sp].d(G)[sp].d(A)[sp].d(A)[sp].d(G)[sp].d(T)[sp].d(G)[sp].d(C)[sp].d(A)[sp].d(C)[sp].[moe](A)[sp].[moe](C)}$$$$V2.0” the value was 70% and 67%; for “RNA1{[moe](G)[sp].[moe](A)[sp].[moe](A)[sp].[moe](G)[sp].d(C)[sp].d(G)[sp].d(A)[sp].d(A)[sp].d(G)[sp].d(T)[sp].d(G)[sp].d(C)[sp].d(A)[sp].[moe](C)[sp].[moe](A)[sp].[moe](C)}$$$$V2.0”, 48% and 59%; for “RNA1{[moe](G)[sp].[moe](A)[sp].[moe](A)[sp].[moe](G)[sp].d(T)[sp].d(C)[sp].d(C)[sp].d(A)[sp].d(C)[sp].d(C)[sp].d(A)[sp].d(C)[sp].d(G)[sp].[moe](A)[sp].[moe](G)[sp].[moe](T)[sp].[moe](C)}$$$$V2.0”, 48% and 36%. For the substance “RNA1{[moe](G)[sp].[moe](A)[sp].[moe](A)[sp].d(C)[sp].d(A)[sp].d(A)[sp].d(A)[sp].d(T)[sp].d(G)[sp].d(G)[sp].d(C)[sp].d(A)[sp].d(C)[sp].[cEt](T)[sp].[cEt](A)[sp].[cEt](G)}$$$$V2.0”, the target mRNA inhibition (HepG2, 0.0092593 µM) came out at 15%; the target mRNA inhibition (HepG2, 0.0277778 µM) was determined as 40%; the target mRNA inhibition (HepG2, 0.07 µM) was 80% and 81%; the target mRNA inhibition (HepG2, 0.0833333 µM) was 69%; the target mRNA inhibition (HepG2, 0.25 µM) is 86%.

Take “RNA1{[moe](G)[sp].[moe](A)[sp].[moe](A)[sp].d(C)[sp].d(T)[sp].d(G)[sp].d(G)[sp].d(A)[sp].d(G)[sp].d(C)[sp].d(C)[sp].d(A)[sp].[moe](C)[sp].[moe](C)[sp].[moe](A)[sp].[moe](G)}$$$$V2.0”: the target mRNA inhibition (HepG2, 0.07 µM) is 51% and 39%. With “RNA1{[moe](G)[sp].[moe](A)[sp].[moe](A)[sp].d(G)[sp].d(C)[sp].d(G)[sp].d(A)[sp].d(A)[sp].d(G)[sp].d(T)[sp].d(G)[sp].d(C)[sp].[moe](A)[sp].[moe](C)[sp].[moe](A)[sp].[moe](C)[sp].[moe](G)}$$$$V2.0”, the target mRNA inhibition (HepG2, 0.07 µM) was 76% and 60%.

On to “RNA1{[moe](G)[sp].[moe](A)[sp].[moe](G)[sp].[cEt](G)[sp].[cEt](T)[sp].d(G)[sp].d(A)[sp].d(A)[sp].d(G)[sp].d(C)[sp].d(G)[sp].d(A)[sp].[cEt](A)[sp].[cEt](G)[sp].[moe](T)[sp].[moe](G)[sp].[moe](C)}$$$$V2.0”, for which the target mRNA inhibition reads like this: (HepG2, 0.009375 µM) 19%; (HepG2, 0.01875 µM) 27%; (HepG2, 0.0375 µM) 35%; (HepG2, 0.075 µM) 48%; (HepG2, 0.15 µM) 50%; (HepG2, 0.3 µM) 63%. For the substance “RNA1{[moe](G)[sp].[moe](A)[sp].[moe](G)[sp].[cEt](G)[sp].d(T)[sp].d(G)[sp].d(A)[sp].d(A)[sp].d(G)[sp].d(C)[sp].d(G)[sp].d(A)[sp].d(A)[sp].[cEt](G)[sp].[moe](T)[sp].[moe](G)[sp].[moe](C)}$$$$V2.0”, the target mRNA inhibition is, setting by setting: (HepG2, 0.009375 µM) 22%; (HepG2, 0.01875 µM) 25%; (HepG2, 0.0375 µM) 50%; (HepG2, 0.075 µM) 69%; (HepG2, 0.15 µM) 76%; (HepG2, 0.3 µM) 88%.
